From US7754239B2, “Capsule for rapid solubilization and release of the content” (V. Mane Fils S.A., priority 2001, dated 2010)

Experiment: In vitro kinetics of release of aromatic molecules in water (test A samples)
Type: physicochemical
Conditions: water 37° C., pH 6.5, 5 mm capsule of Example 3; for Total concentration of aromatic molecules over all samples: Total 0-70 seconds
Description: A 5 mm capsule, the composition of which is given in Table 5, is analyzed according to test A.
The taking of various samples makes it possible to establish the in vitro kinetics of release of aromatic molecules in water at 37° C.+/−1° C. and at pH 6.5. Table 6 indicates the concentration of aromatic molecules of various samples.
It may be noted that most of the molecules are released within 40 s, at most within 70 s.

| Structure (SMILES) | Total concentration of aromatic molecules over all samples | concentration of aromatic molecules of sample (time 0-5 seconds) | concentration of aromatic molecules of sample (time 5-10 seconds) | concentration of aromatic molecules of sample (time 10-15 seconds) | concentration of aromatic molecules of sample (time 15-20 seconds) | concentration of aromatic molecules of sample (time 20-30 seconds) | concentration of aromatic molecules of sample (time 30-40 seconds) | concentration of aromatic molecules of sample (time 40-50 seconds) | concentration of aromatic molecules of sample (time 50-60 seconds) | concentration of aromatic molecules of sample (time 60-70 seconds) |
| --- | --- | --- | --- | --- | --- | --- | --- | --- | --- | --- |
| CC1CCC(C(C)C)C(O)C1 (centres unmarked) [Menthol] | 399 ppm | 47 ppm | 67 ppm | 63 ppm | 90 ppm | 62 ppm | 24 ppm | 24 ppm | 16 ppm | 6 ppm |
| Cc1ccc(C(C)C)c(O)c1 [Thymol] | 139 ppm | 19 ppm | 28 ppm | 22 ppm | 31 ppm | 20 ppm | 7 ppm | 7 ppm | 4 ppm | 1 ppm |
